This passage reports TGI results from PubChem BioAssay (NCI).

In general, TGI refers to the concentration giving total growth inhibition. A lower TGI goes with greater sensitivity of the cells.

SMILES strings stand for the structures.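 Step 1: Grow cells in 96-well plates. Step 2: Expose to compound for 48 hours at 5 concentrations. Step 3: Interpolate endpoints linearly; if unreached, use highest concentration. At the TGI there is no net growth.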

Among the test systems are K-562 leukemia; MALME-3M melanoma; MDA-MB-435; NCI/ADR-RES ovarian; OVCAR-5 ovarian; PC-3 prostate; SK-OV-3 ovarian; SN12C renal; HOP-62 NSCLC; SF-539 CNS.
What all share (assay): DTP human tumour cell line panel, 48 h

For the molecule `Cc1c(O)nc(-n2[nH]c3c(c2=O)CCCC3)[nH]c1=O`, the total growth inhibition concentration (TGI) in the test with K-562 leukemia, in the test with MALME-3M melanoma, in the test on MDA-MB-435, with NCI/ADR-RES ovarian, in the test on OVCAR-5 ovarian and with PC-3 prostate was > 100 µM throughout. The total growth inhibition concentration (TGI) with SK-OV-3 ovarian and with SN12C renal was > 100 µM throughout.
Take `COC(=O)/C=C\C(C#N)(C#N)N=Cc1ccc(C)cc1`: the TGI with HOP-62 NSCLC came to 34.2 µM; in the test with K-562 leukemia it was 16.7 µM; in the test on MALME-3M melanoma, 5.5 µM; in the test on MDA-MB-435 it was 5.01 µM; with NCI/ADR-RES ovarian, 10.9 µM; with OVCAR-5 ovarian, 37.8 µM. Besides, the TGI in the test on PC-3 prostate is 15.2 µM; in the test with SF-539 CNS it was 10.9 µM; in the test with SK-OV-3 ovarian, 31.6 µM; in the test with SN12C renal, 29.8 µM.
Consider `O=C(NCP(=O)(Oc1ccccc1)Oc1ccccc1)OCc1ccccc1`, for which the TGI with HOP-62 NSCLC, with K-562 leukemia, with MALME-3M melanoma, in the test on MDA-MB-435, with NCI/ADR-RES ovarian and with OVCAR-5 ovarian was > 100 µM each time. Moreover, the TGI in the test on PC-3 prostate, in the test on SK-OV-3 ovarian and with SN12C renal was > 100 µM in each case.
Regarding `NCCCN1c2ccccc2Sc2ccc(Cl)cc21`, the TGI was > 10 µM with HOP-62 NSCLC; > 8.41 µM in the test with K-562 leukemia; > 10 µM in the test with MALME-3M melanoma; 4.01 µM in the test with MDA-MB-435; > 10 µM in the test on NCI/ADR-RES ovarian; > 9.34 µM with OVCAR-5 ovarian. For the same molecule, the TGI in the test on PC-3 prostate, in the test with SF-539 CNS, in the test with SK-OV-3 ovarian and with SN12C renal was > 10 µM each time.
Regarding `CCOS(C)(=O)=O`, the total growth inhibition concentration (TGI) with K-562 leukemia, in the test with MALME-3M melanoma, in the test with MDA-MB-435, in the test with NCI/ADR-RES ovarian, in the test with OVCAR-5 ovarian and in the test on PC-3 prostate was > 100 µM each time. Further, the TGI with SF-539 CNS, with SK-OV-3 ovarian and in the test with SN12C renal was > 100 µM throughout.
With `C/C(C[n+]1ccccc1)=N\N=C(N)N`, the TGI in the test on HOP-62 NSCLC, in the test with K-562 leukemia, in the test with MALME-3M melanoma, with MDA-MB-435, in the test on NCI/ADR-RES ovarian and in the test on OVCAR-5 ovarian was > 100 µM in each case. Further, the TGI with PC-3 prostate, with SK-OV-3 ovarian and in the test on SN12C renal was > 100 µM in each case.
Regarding `O=C(CCn1ccnc1[N+](=O)[O-])NCCCn1ccnc1[N+](=O)[O-]`, the TGI in the test on HOP-62 NSCLC, in the test on K-562 leukemia, in the test on MALME-3M melanoma, in the test on MDA-MB-435, with NCI/ADR-RES ovarian and in the test with OVCAR-5 ovarian was > 100 µM in each case. The TGI in the test on PC-3 prostate, in the test with SF-539 CNS, with SK-OV-3 ovarian and with SN12C renal was > 100 µM throughout.
As for `Oc1cc(Cl)cc2cccnc12`, the TGI in the test on HOP-62 NSCLC is > 100 µM; in the test on K-562 leukemia, 2.66 µM; in the test with MALME-3M melanoma, 54.5 µM; with MDA-MB-435, > 77.6 µM; in the test with NCI/ADR-RES ovarian, 5.37 µM; in the test with OVCAR-5 ovarian it was > 100 µM. For the same molecule, the TGI in the test with PC-3 prostate is > 100 µM; in the test on SF-539 CNS, > 67 µM; with SK-OV-3 ovarian, > 100 µM; in the test on SN12C renal, > 100 µM.
Turning to `CSc1cc(-c2cccs2)sc1-c1cc(SC)c(-c2sc(-c3sc(-c4cccs4)cc3SC)cc2SC)s1`, the TGI in the test with HOP-62 NSCLC, in the test with K-562 leukemia, in the test on MALME-3M melanoma, with MDA-MB-435, in the test with NCI/ADR-RES ovarian and in the test on OVCAR-5 ovarian was > 100 µM each time. Moreover, the TGI in the test on PC-3 prostate, in the test on SF-539 CNS, in the test on SK-OV-3 ovarian and in the test with SN12C renal was > 100 µM each time.
As for `S=C1NC2=C(CSC/C2=C\c2cccc(Br)c2)C(c2cccc(Br)c2)N1` (stereo not drawn), the TGI in the test with HOP-62 NSCLC, with K-562 leukemia, in the test on MALME-3M melanoma, in the test with MDA-MB-435, in the test with NCI/ADR-RES ovarian and in the test on OVCAR-5 ovarian was > 100 µM each time. The TGI in the test with PC-3 prostate, in the test with SF-539 CNS, in the test on SK-OV-3 ovarian and in the test on SN12C renal was > 100 µM each time.
For `O=C1c2cc(-c3ccccc3)cnc2S(=O)(=O)N1c1ccc(Br)cc1`, the TGI with HOP-62 NSCLC was 32.2 µM; with MALME-3M melanoma, 96.9 µM; in the test with MDA-MB-435, > 100 µM; with NCI/ADR-RES ovarian it was > 100 µM; with OVCAR-5 ovarian, > 100 µM; with PC-3 prostate, > 100 µM. Besides, the TGI is 87.2 µM in the test on SF-539 CNS, 53.9 µM with SK-OV-3 ovarian and > 100 µM with SN12C renal.
For the molecule `O=C(O)[C@H]1CCCN1CP(=O)(O)CN1CCC[C@@H]1C(=O)O`, the TGI in the test with HOP-62 NSCLC, in the test with K-562 leukemia, in the test with MALME-3M melanoma, with MDA-MB-435, in the test with NCI/ADR-RES ovarian and in the test with OVCAR-5 ovarian was > 100 µM in each case. In addition, the TGI in the test on PC-3 prostate, in the test with SK-OV-3 ovarian and in the test with SN12C renal was > 100 µM each time.
Regarding `Cc1nc(C)c(N2CCN([N+](=O)[O-])CC2)c(=O)[nH]1`, the concentration for total growth inhibition (TGI) with HOP-62 NSCLC, with K-562 leukemia, in the test on MALME-3M melanoma, with MDA-MB-435, in the test on NCI/ADR-RES ovarian and in the test on PC-3 prostate was > 100 µM throughout. The total growth inhibition concentration (TGI) in the test on SF-539 CNS, in the test with SK-OV-3 ovarian and in the test on SN12C renal was > 100 µM in each case.
`Cc1ccc(S(=O)(=O)n2c3c(c4ccccc42)CCN2C[C@H]([C@H](C)Br)CC[C@@H]32)cc1`: the TGI in the test with HOP-62 NSCLC, in the test on K-562 leukemia, with MALME-3M melanoma, with MDA-MB-435, with NCI/ADR-RES ovarian and in the test with OVCAR-5 ovarian was > 100 µM each time. The TGI with PC-3 prostate, in the test with SF-539 CNS and in the test with SK-OV-3 ovarian was > 100 µM throughout.
For `CC(NC(=O)Cc1ccccc1)NC(=O)C(C)C(=O)Nc1ccccc1` (stereo not drawn), the TGI in the test on K-562 leukemia, in the test on MALME-3M melanoma, in the test on MDA-MB-435, in the test on NCI/ADR-RES ovarian, in the test on OVCAR-5 ovarian and in the test with PC-3 prostate was > 100 µM throughout. Also, the TGI in the test with SF-539 CNS, with SK-OV-3 ovarian and in the test with SN12C renal was > 100 µM each time.
In the case of `CCCNc1ncnc2c1ncn2C`, the TGI in the test on HOP-62 NSCLC, with K-562 leukemia, in the test with MALME-3M melanoma, with MDA-MB-435, in the test on NCI/ADR-RES ovarian and with PC-3 prostate was > 100 µM in each case. The TGI in the test with SF-539 CNS was > 100 µM; in the test on SK-OV-3 ovarian it was > 100 µM; with SN12C renal it was 98.2 µM.
With `BrC(=C(c1ccc(OC2CCCCO2)cc1)c1ccc(OC2CCCCO2)cc1)c1ccccc1` (stereo not drawn), the TGI in the test with HOP-62 NSCLC, in the test with K-562 leukemia, in the test with MALME-3M melanoma, with MDA-MB-435, in the test with NCI/ADR-RES ovarian and in the test with PC-3 prostate was > 100 µM throughout. Besides, the TGI with SF-539 CNS, in the test with SK-OV-3 ovarian and in the test with SN12C renal was > 100 µM throughout.
For `CC(C)(C)[Si](C)(C)OCC1OC(n2ccc(=O)[nH]c2=O)C(O[Si](C)(C)C(C)(C)C)/C1=C/C#N` (stereo not drawn), the TGI in the test on HOP-62 NSCLC is > 100 µM; in the test with MALME-3M melanoma, > 100 µM; with MDA-MB-435 it was > 38.7 µM; in the test on NCI/ADR-RES ovarian, > 42.3 µM; in the test with OVCAR-5 ovarian it was > 100 µM; in the test with PC-3 prostate, > 100 µM. For the same molecule, the TGI in the test with SF-539 CNS is > 64 µM; with SK-OV-3 ovarian, > 100 µM; with SN12C renal, 32.5 µM.
For the molecule `O=C(O)CCNc1ncnc2nc[nH]c12`, the TGI with HOP-62 NSCLC, with K-562 leukemia, in the test with MALME-3M melanoma, with MDA-MB-435, with NCI/ADR-RES ovarian and in the test with OVCAR-5 ovarian was > 100 µM each time. Moreover, the total growth inhibition concentration (TGI) in the test on PC-3 prostate, in the test on SK-OV-3 ovarian and with SN12C renal was > 100 µM throughout.
Regarding `C=CCn1c(=O)c(C(=O)Nc2nc(C34CC5CC(CC(C5)C3)C4)cs2)c(O)c2ccccc21`, the TGI was > 100 µM in the test on HOP-62 NSCLC; > 100 µM in the test with K-562 leukemia; > 100 µM in the test on MALME-3M melanoma; > 100 µM in the test with MDA-MB-435; 76.6 µM in the test on NCI/ADR-RES ovarian; > 100 µM in the test with OVCAR-5 ovarian. Also, the TGI in the test on PC-3 prostate, with SF-539 CNS and with SN12C renal was > 100 µM in each case.
As to `CN1CCOC1c1ccccc1O` (stereo not drawn), the TGI in the test on HOP-62 NSCLC, with K-562 leukemia, with MALME-3M melanoma, in the test with MDA-MB-435, with NCI/ADR-RES ovarian and with OVCAR-5 ovarian was > 100 µM each time. In addition, the TGI in the test on PC-3 prostate, with SF-539 CNS and in the test on SK-OV-3 ovarian was > 100 µM in each case.
On to `C=CCc1cc(-c2nc(=S)[nH][nH]2)ccc1N=NNc1ccc(C(=O)O)cc1`, for which the TGI with HOP-62 NSCLC, in the test on K-562 leukemia, in the test on MALME-3M melanoma, in the test with MDA-MB-435, in the test on NCI/ADR-RES ovarian and in the test with OVCAR-5 ovarian was > 100 µM in each case. Also, the TGI in the test on PC-3 prostate, in the test on SK-OV-3 ovarian and with SN12C renal was > 100 µM throughout.
